As usually defined, the IC50 is the point on the concentration scale where inhibition reaches its midpoint. A higher IC50 goes with weaker potency.

The assay deals with T1, IGF-1R (Homo sapiens, UniProt P08069).
T1 construct: expressed in transfected cells; host or cells: Hek293 (Hek293-IGF1R)
T1 sequence (P08069 31-1367): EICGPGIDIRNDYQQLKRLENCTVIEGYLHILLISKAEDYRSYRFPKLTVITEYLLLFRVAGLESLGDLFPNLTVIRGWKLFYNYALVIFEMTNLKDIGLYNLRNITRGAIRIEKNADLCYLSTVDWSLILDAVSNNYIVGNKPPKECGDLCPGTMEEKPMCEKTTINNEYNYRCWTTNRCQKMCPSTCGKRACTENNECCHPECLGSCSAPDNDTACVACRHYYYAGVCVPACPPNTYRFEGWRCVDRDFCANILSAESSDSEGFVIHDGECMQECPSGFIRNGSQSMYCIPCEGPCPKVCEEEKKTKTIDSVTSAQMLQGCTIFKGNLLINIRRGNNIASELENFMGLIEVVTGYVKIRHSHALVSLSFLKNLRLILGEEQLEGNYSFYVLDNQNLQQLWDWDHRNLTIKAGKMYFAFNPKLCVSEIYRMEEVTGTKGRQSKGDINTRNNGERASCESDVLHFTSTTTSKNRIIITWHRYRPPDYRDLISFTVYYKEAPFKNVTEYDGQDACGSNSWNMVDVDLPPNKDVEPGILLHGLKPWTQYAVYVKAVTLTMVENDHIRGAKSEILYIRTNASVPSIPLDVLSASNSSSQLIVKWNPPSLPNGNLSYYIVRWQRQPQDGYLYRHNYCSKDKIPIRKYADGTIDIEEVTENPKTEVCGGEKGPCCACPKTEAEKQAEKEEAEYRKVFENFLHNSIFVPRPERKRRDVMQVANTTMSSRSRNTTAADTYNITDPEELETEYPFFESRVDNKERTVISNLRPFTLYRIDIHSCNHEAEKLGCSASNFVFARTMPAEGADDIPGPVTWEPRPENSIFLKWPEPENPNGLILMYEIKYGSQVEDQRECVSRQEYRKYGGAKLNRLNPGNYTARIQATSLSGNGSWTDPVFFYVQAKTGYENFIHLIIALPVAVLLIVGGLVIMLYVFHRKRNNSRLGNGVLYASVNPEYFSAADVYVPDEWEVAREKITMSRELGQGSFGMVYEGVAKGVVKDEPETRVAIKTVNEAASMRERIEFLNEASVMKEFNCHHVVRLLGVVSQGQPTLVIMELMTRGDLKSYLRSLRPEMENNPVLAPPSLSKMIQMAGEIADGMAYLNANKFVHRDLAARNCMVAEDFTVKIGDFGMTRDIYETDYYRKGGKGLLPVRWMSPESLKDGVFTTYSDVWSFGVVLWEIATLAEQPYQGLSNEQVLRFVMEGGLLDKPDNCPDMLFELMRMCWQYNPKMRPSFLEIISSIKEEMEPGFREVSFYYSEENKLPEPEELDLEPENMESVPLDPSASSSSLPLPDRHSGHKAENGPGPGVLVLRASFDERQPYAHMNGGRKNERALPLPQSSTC
Kind of assay: Cellular IGF-1R assay: capture ELISA (MSD) of receptor phosphorylation in Hek293 cells. In kind it is cell-based. The settings on record: Hek293-IGF1R cells, 1 h pre-incubation, 10 min IGF stimulation, pIGF1R capture ELISA. In outline: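 IC50 from 4-parameter fit of IGF1R phosphorylation, normalised to IGF-stimulated and unstimulated controls, measured by MSD capture ELISA on lysates. Hek293-IGF1R cells in starvation medium got compound 1 h (top 10 μM, 3-fold steps, 0.1% DMSO) before a 10 min pulse of 1.0 ng/μL IGF.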
The compound `Nc1ncnc2c1c(-c1cccc(OCC34CCC(CC3)O4)c1)cn2[C@H]1CC[C@@H](N2CCC(F)(F)CC2)CC1` [Example 116, 5-(3-(7-oxabicyclo[2.2.1]heptan-1-ylmethoxy)phenyl)-7-((1S,4S)-4-(4,4-difluoropiperidin-1-yl)cyclohexyl)-7H-pyrrolo[2,3-d]pyrimidin-4-amine] showed an IC50 of 224 nM.
The compound `Nc1ncnc2c1c(-c1cccc(OCC34CCC(CC3)O4)c1)cn2C1CCC(O)(CNC2CC2)CC1` [Example 117, (1R,4R)-4-(5-(3-(7-oxabicyclo[2.2.1]heptan-1-ylmethoxy)phenyl)-4-amino-7H-pyrrolo[2,3-d]pyrimidin-7-yl)-1-((cyclopropylamino)methyl)cyclohexanol] displayed an IC50 of 160 nM.
To `Nc1ncnc2c1c(-c1cccc(OCC34CCC(CC3)O4)c1)cn2C1CCN(C2COC2)CC1` [Example 118, 5-(3-(7-oxabicyclo[2.2.1]heptan-1-ylmethoxy)phenyl)-7-(1-(oxetan-3-yl)piperidin-4-yl)-7H-pyrrolo[2,3-d]pyrimidin-4-amine] belongs 397 nM.
`CN1CCN([C@H]2CC[C@@H](n3cc(-c4cccc(OC[C@@H]5CCC(C)(C)O5)c4)c4c(N)ncnc43)CC2)CC1` [Example 119, 5-(3-(((S)-5,5-dimethyltetrahydrofuran-2-yl)methoxy)phenyl)-7-((1S,4S)-4-(4-methylpiperazin-1-yl)cyclohexyl)-7H-pyrrolo[2,3-d]pyrimidin-4-amine] had an IC50 of 36 nM.
Then `Nc1ncnc2c1c(-c1cccc(OCC3CCCCO3)c1)cn2C1CC(CN2CCCC2C(O)C(F)(F)F)C1` [Example 120, (1S)-1-((2S)-1-(((1S,3R)-3-(4-amino-5-(3-((tetrahydro-2H-pyran-2-yl)methoxy)phenyl)-7H-pyrrolo[2,3-d]pyrimidin-7-yl)cyclobutyl)methyl)pyrrolidin-2-yl)-2,2,2-trifluoroethanol], with 195 nM; and `CN1CCN([C@H]2CC[C@@H](n3cc(-c4cccc(OC[C@H]5CCC(C)(C)O5)c4)c4c(N)ncnc43)CC2)CC1` [Example 121, 5-(3-(((R)-5,5-dimethyltetrahydrofuran-2-yl)methoxy)phenyl)-7-((1S,4S)-4-(4-methylpiperazin-1-yl)cyclohexyl)-7H-pyrrolo[2,3-d]pyrimidin-4-amine], with 149 nM.
To `C[C@]1(O)C[C@@H](c2nc(-c3cccc(OCC45CCC(CC4)O5)c3)c3c(N)nccn32)C1` [Example 122] belongs 485 nM; to `CN1CCN(C[C@]2(O)C[C@@H](n3cc(-c4cccc(OCC56CCC(CC5)O6)c4)c4c(N)ncnc43)C2)CC1` [Example 123, (Z)-3-{4-Amino-5-[3-(7-oxa-bicyclo[2.2.1]hept-1-ylmethoxy)-phenyl]-pyrrolo[2,3-d]pyrimidin-7-yl}-1-(4-methyl-piperazin-1-ylmethyl)-cyclobutanol], 69 nM.
To `Nc1ncnc2c1c(-c1cccc(OCC34CCC(CC3)O4)c1)cn2[C@H]1CC[C@@H](CN2CC[C@@H](O)C2)CC1` [Example 124] belongs 25 nM; to `Nc1ncnc2c1c(-c1cccc(OCC34CCC(CC3)O4)c1)cn2[C@H]1CC[C@H](N2CC[C@@H](F)C2)CC1` [Example 125, 5-(3-(7-oxabicyclo[2.2.1]heptan-1-ylmethoxy)phenyl)-7-((1R,4S)-4-((R)-3-fluoropyrrolidin-1-yl)cyclohexyl)-7H-pyrrolo[2,3-d]pyrimidin-4-amine], 419 nM; to `Nc1ncnc2c1c(-c1cccc(OCC34CCC(CC3)O4)c1)cn2C1CCC(CN2CCC(O)C2)CC1` [Example 126, (S)-1-(((1S,4S)-4-(5-(3-(7-oxabicyclo[2.2.1]heptan-1-ylmethoxy)phenyl)-4-amino-7H-pyrrolo[2,3-d]pyrimidin-7-yl)cyclohexyl)methyl)pyrrolidin-3-ol], 50 nM.
`Nc1ncnc2c1c(-c1cccc(OCC34CCC(CC3)O4)c1)cn2C1CCC(N2CCC(O)C2)CC1` [Example 127, (S)-1-((1S,4S)-4-(5-(3-(7-oxabicyclo[2.2.1]heptan-1-ylmethoxy)phenyl)-4-amino-7H-pyrrolo[2,3-d]pyrimidin-7-yl)cyclohexyl)pyrrolidin-3-ol] gave an IC50 of 374 nM.
For `Nc1ncnc2c1c(-c1cccc(OCC34CCC(CC3)O4)c1)cn2[C@H]1CC[C@@H](N2CC[C@@H](O)C2)CC1` [Example 128, (R)-1-((1S,4S)-4-(5-(3-(7-oxabicyclo[2.2.1]heptan-1-ylmethoxy)phenyl)-4-amino-7H-pyrrolo[2,3-d]pyrimidin-7-yl)cyclohexyl)pyrrolidin-3-ol], the IC50 was determined as 150 nM. This IC50 lies about 2.5-fold lower than the previous one.
As to `Nc1ncnc2c1c(-c1cccc(OCC34CCC(CC3)O4)c1)cn2[C@H]1CC[C@@H](CN2CCNC(=O)C2)CC1` [Example 129, 4-(((1S,4S)-4-(5-(3-(7-oxabicyclo[2.2.1]heptan-1-ylmethoxy)phenyl)-4-amino-7H-pyrrolo[2,3-d]pyrimidin-7-yl)cyclohexyl)methyl)piperazin-2-one], the IC50 was 320 nM. This IC50 lies about 2.1-fold higher than the previous one.
`Nc1ncnc2c1c(-c1cccc(OCC34CCC(CC3)O4)c1)cn2[C@H]1CC[C@@H](CN2CCOCC2)CC1` [Example 130] came in with an IC50 of 45 nM.
To `Nc1ncnc2c1c(-c1cccc(OCC34CCC(CC3)O4)c1)cn2C1CCC(N2CCS(=O)(=O)CC2)CC1` (stereo not drawn) [Example 131, 7-[4-(1,1-Dioxo-1λ6-thiomorpholin-4-yl)-cyclohexyl]-5-[3-(7-oxa-bicyclo[2.2.1]hept-1-ylmethoxy)-phenyl]-7H-pyrrolo[2,3-d]pyrimidin-4-ylamine] belongs 108 nM.
Then `Nc1ncnc2c1c(-c1cccc(OCC34CCC(CC3)O4)c1)cn2C1CCC(N2CC[C@H](F)C2)CC1` (stereo partly drawn) [Example 132, 5-(3-(7-oxabicyclo[2.2.1]heptan-1-ylmethoxy)phenyl)-7-((1R,4R)-4-((S)-3-fluoropyrrolidin-1-yl)cyclohexyl)-7H-pyrrolo[2,3-d]pyrimidin-4-amine], with 114 nM; and `CC(=O)N[C@H]1CC[C@@H](n2cc(-c3cccc(OCC45CCC(CC4)O5)c3)c3c(N)ncnc32)CC1` [Example 133, N-((1S,4S)-4-(5-(3-(7-oxabicyclo[2.2.1]heptan-1-ylmethoxy)phenyl)-4-amino-7H-pyrrolo[2,3-d]pyrimidin-7-yl)cyclohexyl)acetamide], with 238 nM; and `NC[C@H]1CC[C@@H](n2cc(-c3cccc(OCC45CCC(CC4)O5)c3)c3c(N)ncnc32)CC1` [Example 134, 5-(3-(7-oxabicyclo[2.2.1]heptan-1-ylmethoxy)phenyl)-7-((1S,4S)-4-(aminomethyl)cyclohexyl)-7H-pyrrolo[2,3-d]pyrimidin-4-amine], with 227 nM.
`CC1(C)CS(=O)(=O)CCN1CC1CCC(n2cc(-c3cccc(OCC45CCC(CC4)O5)c3)c3c(N)ncnc32)CC1` (stereo not drawn) [Example 135, 7-[4-(3,3-Dimethyl-1,1-dioxo-1λ6-thiomorpholin-4-ylmethyl)-cyclohexyl]-5-[3-(7-oxa-bicyclo[2.2.1]hept-1-ylmethoxy)-phenyl]-7H-pyrrolo[2,3-d]pyrimidin-4-ylamine] had an IC50 of 456 nM.
Then `Nc1ncnc2c1c(-c1cccc(OCC34CCC(CC3)O4)c1)cn2[C@H]1CC[C@@H](CN2CCNCC2)CC1` [Example 136, 5-(3-(7-oxabicyclo[2.2.1]heptan-1-ylmethoxy)phenyl)-7-((1S,4S)-4-(piperazin-1-ylmethyl)cyclohexyl)-7H-pyrrolo[2,3-d]pyrimidin-4-amine], with 597 nM; and `CS(=O)(=O)N1CCN(C[C@H]2CC[C@@H](n3cc(-c4cccc(OCC56CCC(CC5)O6)c4)c4c(N)ncnc43)CC2)CC1` [Example 137, 5-(3-(7-oxabicyclo[2.2.1]heptan-1-ylmethoxy)phenyl)-7-((1S,4S)-4-((4-(methylsulfonyl)piperazin-1-yl)methyl)cyclohexyl)-7H-pyrrolo[2,3-d]pyrimidin-4-amine], with 164 nM; and `Nc1ncnc2c1c(-c1cccc(OCC34CCC(CC3)O4)c1)cn2[C@H]1CC[C@@H](n2ccnc2)CC1` [Example 138, 7-((1S,4S)-4-(1H-imidazol-1-yl)cyclohexyl)-5-(3-(7-oxabicyclo[2.2.1]heptan-1-ylmethoxy)phenyl)-7H-pyrrolo[2,3-d]pyrimidin-4-amine], with 241 nM.
Take `Nc1ncnc2c1c(-c1cccc(OCC34CCC(CC3)O4)c1)cn2C1CCC2(CC1)CNC(=O)O2` (stereo not drawn) [Example 139, 8-(5-(3-(7-oxabicyclo[2.2.1]heptan-1-ylmethoxy)phenyl)-4-amino-7H-pyrrolo[2,3-d]pyrimidin-7-yl)-1-oxa-3-azaspiro[4.5]decan-2-one]: the IC50 turned out to be 543 nM.
To `CN1CCN(C(=O)N[C@H]2CC[C@@H](n3cc(-c4cccc(OCC56CCC(CC5)O6)c4)c4c(N)ncnc43)CC2)CC1` [Example 140, N-((1R,4R)-4-(5-(3-(7-oxabicyclo[2.2.1]heptan-1-ylmethoxy)phenyl)-4-amino-7H-pyrrolo[2,3-d]pyrimidin-7-yl)cyclohexyl)-4-methylpiperazine-1-carboxamide] belongs 473 nM; to `Nc1ncnc2c1c(-c1cccc(OCC34CCC(CC3)O4)c1)cn2[C@H]1CC[C@@H](NC(=O)C2CCOCC2)CC1` [Example 141, N-((1S,4S)-4-(5-(3-(7-oxabicyclo[2.2.1]heptan-1-ylmethoxy)phenyl)-4-amino-7H-pyrrolo[2,3-d]pyrimidin-7-yl)cyclohexyl)tetrahydro-2H-pyran-4-carboxamide], 21 nM; to `Nc1ncnc2c1c(-c1cccc(OCC34CCC(CC3)O4)c1)cn2[C@H]1CC[C@@H](NC(=O)C2CCC2)CC1` [Example 142, N-((1S,4S)-4-(5-(3-(7-oxabicyclo[2.2.1]heptan-1-ylmethoxy)phenyl)-4-amino-7H-pyrrolo[2,3-d]pyrimidin-7-yl)cyclohexyl)cyclobutanecarboxamide], 54 nM.

For the origin of these results see US20120165310A1, “ETHER DERIVATIVES OF BICYCLIC HETEROARYLS” (NOVARTIS AG, priority 2009, published 2012).
